# Test results published in PMC3764026, “Adaptive Evolution of Escherichia coli to an α-Peptide/β-Peptoid Peptidomimetic Induces Stable Resistance” (PLoS ONE, 2013).
# Tests used:
# [1] = test system: Escherichia coli ATCC 25922; format: cell-based; conditions: wild-type E. coli ATCC 25922; MHB pH 7.4, 5×10^5 CFU/mL, 37°C, 18–20 h
# Procedure: All experiments were performed with Escherichia coli ATCC 25922. Stock cultures of the wild-type strain and lineage isolates were stored at –80°C in 4% (w/v) glycerol, 0.5% (w/v) glucose, 2% (w/v) skimmed milk powder and 3% (w/v) tryptone soy powder. Lineage populations were frozen at –80°C in 50% (w/v) glycerol. All experiments were performed at 37°C. Experiments were carried out in cation-adjusted Mueller Hinton II broth (MHB) (Becton Dickinson 212322) adjusted to pH 7.4 or in 1% (w/v) peptone (Becton Dickinson 211677) for MIC determination of natural AMPs. Brain Heart Infusion (BHI) (CM1135) with agar (VWR 20768.292) 1.5% as gelling agent was used throughout for colony plating.
# MIC was determined by using the micro-dilution method according to guidelines of the Clinical and Laboratory Standards Institute. Peptidomimetic 1 and erythromycin 1∶2 serial dilutions were prepared from 1024 µg/mL stock solutions to give a final range of 512-0.5 µg/mL in the wells. Ampicillin 1∶2 serial dilutions were prepared from a 256 µg/mL stock solution to give a final range of 128-0.13 µg/mL in the wells. Polymyxin B and gentamicin 1∶2 serial dilutions were prepared from a 64 µg/mL stock solution to give a final range of 32-0.03 µg/mL in the wells. Also, 1∶2 serial dilutions of the AMPs KR-12, IsCTp, melittin and PEP-1-K were prepared from 64 µg/mL stock solutions to give a final range of 32-0.03 µg/mL in the wells; however this was performed in 1% peptone instead of in MHB since activity was drastically diminished in the latter (not shown).
# The population lineages were tested for their susceptibility towards peptidomimetic 1, polymyxin B, gentamicin and ampicillin. Single-culture isolates selected from these populations were additionally tested against peptidomimetic 1, polymyxin B, erythromycin and the five reference AMPs. To estimate the level of cross-resistance to closely related peptidomimetics, MIC determinations were performed for peptidomimetics 2 and 3 (Figure 1) towards selected isolates. […]
# [2] = test system: isolates from peptidomimetic 1-exposed E. coli ATCC 25922 lineages; conditions: the three most resistant isolates from lineage no. 2
# Procedure: Continuous selection of resistance was performed for peptidomimetic 1 (Figure 1) and for the clinically relevant natural antimicrobial peptide, polymyxin B. A bacterial suspension of a single colony of E. coli ATCC 25922 was re-inoculated (10 µl) five times in unsupplemented MHB (990 µl). It was then re-inoculated in MHB supplemented with peptidomimetic 1 (ten lineages) or polymyxin B (ten lineages), and after ten re-inoculations at constant peptidomimetic or polymyxin B concentration, the concentrations were doubled. […] Four lineages grown in MHB with MilliQ water were included as control. Re-inoculations were performed twice a day, but were reduced to once a day when growth was slower as assessed by turbidity of the cultures. The total number of passages (supplemented with peptidomimetic/AMP) was 77 times equivalent to approx. 500 generations. For each increase in concentration the lineages were preserved as freezing stocks. Ten colony isolates were randomly selected from each lineage population at 32×MIC and preserved as freezing stocks.
# MIC was determined by using the micro-dilution method according to guidelines of the Clinical and Laboratory Standards Institute. Peptidomimetic 1 and erythromycin 1∶2 serial dilutions were prepared from 1024 µg/mL stock solutions to give a final range of 512-0.5 µg/mL in the wells. Ampicillin 1∶2 serial dilutions were prepared from a 256 µg/mL stock solution to give a final range of 128-0.13 µg/mL in the wells. Polymyxin B and gentamicin 1∶2 serial dilutions were prepared from a 64 µg/mL stock solution to give a final range of 32-0.03 µg/mL in the wells.
# The population lineages were tested for their susceptibility towards peptidomimetic 1, polymyxin B, gentamicin and ampicillin. Single-culture isolates selected from these populations were additionally tested against peptidomimetic 1, polymyxin B, erythromycin and the five reference AMPs. To estimate the level of cross-resistance to closely related peptidomimetics, MIC determinations were performed for peptidomimetics 2 and 3 (Figure 1) towards selected isolates. The bacterial suspensions were grown overnight in MHB at 37°C for determination of the population MIC, or individual isolates were grown overnight on non-selective BHI agar at 37°C. […] In all experiments, bacterial cells were suspended in 0.9% saline to give a turbidity of 0.13 at OD546 (approximately 1×10^8 CFU/mL) and diluted in MHB pH 7.4 to a final concentration of 5×10^5 CFU/mL in each well. Polypropylene plates (Nunc 442587) were used to minimize peptide binding, and the incubation time was 18–20 hours at 37°C. […] MIC was found in a minimum of two technical (population MIC) or biological (isolate MIC) replicates as the lowest concentration of the AMP or antibiotic where no visible growth was observed.
smiles,measurement,setting,value
CC(=O)N[C@@H](CCCCNC(=N)N)C(=O)N(CCC(=O)N[C@@H](CCCCNC(=N)N)C(=O)N(CCC(=O)N[C@@H](CCCCNC(=N)N)C(=O)N(CCC(=O)N[C@@H](CCCCNC(=N)N)C(=O)N(CCC(=O)N[C@@H](CCCCNC(=N)N)C(=O)N(CCC(=O)N[C@@H](CCCCNC(=N)N)C(=O)N(CCC(N)=O)Cc1ccccc1)Cc1ccccc1)Cc1ccccc1)Cc1ccccc1)Cc1ccccc1)Cc1ccccc1 [peptidomimetic 3],wt MIC,[1],4 µg/mL
same,MIC,[2],32 µg/mL
same,MIC levels higher than seen for the wild type strain,[2],8 times
